{"source": "patent US20110201628A1", "about": "“HETEROCYCLIC JAK KINASE INHIBITORS” (priority 2008, published 2011)", "molecular_target": "T1, C-terminal His6-tagged, recombinant, human JAK2, amino acids 808-end (Homo sapiens, UniProt O60674)", "T1 construct": "His6 (C); purchased Upstate Biotechnology MA; host or cells: baculovirus in Sf21 cells", "T1 sequence (O60674 808-1132 limits assumed)": "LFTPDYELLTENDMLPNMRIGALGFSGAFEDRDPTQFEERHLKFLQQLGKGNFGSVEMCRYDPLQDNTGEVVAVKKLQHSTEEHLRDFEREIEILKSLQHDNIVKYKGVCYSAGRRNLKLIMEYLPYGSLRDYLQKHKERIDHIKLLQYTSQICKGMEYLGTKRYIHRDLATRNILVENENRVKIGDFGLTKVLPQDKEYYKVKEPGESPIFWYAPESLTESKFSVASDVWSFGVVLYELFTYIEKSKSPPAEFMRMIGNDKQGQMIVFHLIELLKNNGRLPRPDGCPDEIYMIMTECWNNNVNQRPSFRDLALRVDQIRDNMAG", "test": "JAK2 kinase Alphascreen assay (Method 1)", "assay_type": "biochemical", "procedure": "To measure JAK2 kinase activity, a commercially available purified enzyme may be used. […] After incubation of the kinase with a biotinylated substrate and adenosine triphosphate (ATP) for 60 minutes at room temperature, the kinase reaction may be stopped by the addition of 30 mM ethylenediaminetetraacetic acid (EDTA). The reaction may be performed in 384 well microtitre plates and the reaction products may be detected with the addition of streptavidin coated Donor Beads and phosphotyrosine-specific antibodies coated Acceptor Beads using the EnVision Multilabel Plate Reader after an overnight incubation at room temperature. “Tween 20” is a registered trademark of ICI Americas, Inc.", "key": {"[1]": {"conditions": "Alphascreen, 150 pM JAK2 enzyme, 5 mM ATP, 80 nM Tyk2 peptide, 60 minutes room temperature, read-out: IC50 Assay (Method 1)"}}, "note": "Where two headings read alike, the source gives them in different places."}
{"smiles": "COc1ccc2nc(NC(C)c3ncc(F)cc3F)nc(Nc3cn(C)cn3)c2c1", "note": "(racemic) [Example 29, N^2-[1-(3,5-Difluoropyridin-2-yl)ethyl]-6-methoxy-N^4-(1-methyl-1H-imidazol-4-yl)quinazoline-2,4-diamine]", "values": [{"measurement": "IC50", "setting": "[1]", "value": 0.5, "unit": "µM"}]}
{"smiles": "CC(Nc1nc(Nc2cn(C)cn2)c2ccc(O)nc2n1)c1ncc(F)cc1F", "note": "(racemic) [Example 35, 2-{[1-(3,5-Difluoropyridin-2-yl)ethyl]amino}-4-[(1-methyl-1H-imidazol-4-yl)amino]pyrido[2,3-d]pyrimidin-7-ol]", "values": [{"measurement": "IC50", "setting": "[1]", "value": 0.003, "unit": "µM"}]}
{"smiles": "CC(Nc1nc(Nc2cn(C)cn2)c2ccc(Cl)nc2n1)c1ncc(F)cc1F", "note": "(racemic) [Example 44, 7-Chloro-N^2-[1-(3,5-difluoropyridin-2-yl)ethyl]-N^4-(1-methyl-1H-imidazol-4-yl)pyrido[2,3-d]pyrimidine-2,4-diamine]", "values": [{"measurement": "IC50", "setting": "[1]", "value": 0.003, "unit": "µM"}]}
{"smiles": "CC(Nc1nc2c(c(Nc3cn(C)cn3)n1)CNCC2)c1ncc(F)cn1", "note": "(single isomer, unassigned) [17(a), N^2-[1-(5-Fluoropyrimidin-2-yl)ethyl]-N^4-(1-methyl-1H-imidazol-4-yl)-5,6,7,8-tetrahydropyrido[4,3-d]pyrimidine-2,4-diamine]", "values": [{"measurement": "IC50", "setting": "[1]", "value": 0.22, "unit": "µM"}]}
{"smiles": "CC(Nc1nc2c(c(Nc3cn(C)cn3)n1)CNCC2)c1ncc(F)cn1", "note": "(single isomer, unassigned) [17(b), N^2-[1-(5-Fluoropyrimidin-2-yl)ethyl]-N^4-(1-methyl-1H-imidazol-4-yl)-5,6,7,8-tetrahydropyrido[4,3-d]pyrimidine-2,4-diamine]", "values": [{"measurement": "IC50", "setting": "[1]", "value": 2, "unit": "µM"}]}
{"smiles": "CC(Nc1nc(Nc2cn(C)cn2)c2ccsc2n1)c1ncc(F)cn1", "note": "(single isomer, unassigned) [Example 1(a), N^2-[1-(5-Fluoropyrimidin-2-yl)ethyl]-N^4-(1-methyl-1H-imidazol-4-yl)thieno[2,3-d]pyrimidine-2,4-diamine]", "values": [{"measurement": "IC50", "setting": "[1]", "value": 28.8, "unit": "µM"}]}
{"smiles": "CC(Nc1nc(Nc2cn(C)cn2)c2ccsc2n1)c1ncc(F)cn1", "note": "(single isomer, unassigned) [Example 1(b), N^2-[1-(5-Fluoropyrimidin-2-yl)ethyl]-N^4-(1-methyl-1H-imidazol-4-yl)thieno[2,3-d]pyrimidine-2,4-diamine]", "values": [{"measurement": "IC50", "setting": "[1]", "value": "< 0.003", "unit": "µM"}]}
{"smiles": "Cc1nc2c(Nc3cn(C)cn3)nc(NC(C)c3ncc(F)cn3)nc2s1", "note": "(single isomer, unassigned) [Example 7(a), N^5-[1-(5-Fluoropyrimidin-2-yl)ethyl]-2-methyl-N^7-(1-methyl-1H-imidazol-4-yl)[1,3]thiazolo[5,4-d]pyrimidine-5,7-diamine]", "values": [{"measurement": "IC50", "setting": "[1]", "value": 0.57, "unit": "µM"}]}
{"smiles": "Cc1nc2c(Nc3cn(C)cn3)nc(NC(C)c3ncc(F)cn3)nc2s1", "note": "(single isomer, unassigned) [Example 7(b), N^5-[1-(5-Fluoropyrimidin-2-yl)ethyl]-2-methyl-N^7-(1-meth 1-1H-imidazol-4-yl)[1,3]thiazolo[5,4-d]pyrimidine-5,7-diamine]", "values": [{"measurement": "IC50", "setting": "[1]", "value": 21.6, "unit": "µM"}]}
{"smiles": "CC(Nc1nc2c(c(Nc3cn(C)cn3)n1)CCC2)c1ncc(F)cn1", "note": "(single isomer, unassigned) [Example 8(a), N^2-[1-(5-Fluoropyrimidin-2-yl)ethyl]-N^4-(1-methyl-1H-imidazol-4-yl)-6,7-dihydro-5H-cyclopenta[d]pyrimidine-2,4-diamine]", "values": [{"measurement": "IC50", "setting": "[1]", "value": 20, "unit": "µM"}]}
{"smiles": "CC(Nc1nc2c(c(Nc3cn(C)cn3)n1)CCC2)c1ncc(F)cn1", "note": "(single isomer, unassigned) [Example 8(b), N^2-[1-(5-Fluoropyrimidin-2-yl)ethyl]-N^4-(1-methyl-1H-imidazol-4-yl)-6,7-dihydro-5H-cyclopenta[d]pyrimidine-2,4-diamine]", "values": [{"measurement": "IC50", "setting": "[1]", "value": "< 0.003", "unit": "µM"}]}
{"smiles": "CC(Nc1nc(Nc2cn(C)cn2)c2nccnc2n1)c1ncc(F)cn1", "note": "(single isomer, unassigned) [Example 10(a), N^2-[1-(5-Fluoropyrimidin-2-yl)ethyl]-N^4-(1-methyl-1H-imidazol-4-yl)pteridine-2,4-diamine]", "values": [{"measurement": "IC50", "setting": "[1]", "value": 6.4, "unit": "µM"}]}
{"smiles": "CC(Nc1nc(Nc2cn(C)cn2)c2nccnc2n1)c1ncc(F)cn1", "note": "(single isomer, unassigned) [Example 10(b), N^2-[1-(5-Fluoropyrimidin-2-yl)ethyl]-N^4-(1-methyl-1H-imidazol-4-yl)pteridine-2,4-diamine]", "values": [{"measurement": "IC50", "setting": "[1]", "value": 0.2, "unit": "µM"}]}
{"smiles": "CC(Nc1nc(Nc2cn(C)cn2)c2cnn(C)c2n1)c1ncc(F)cn1", "note": "(single isomer, unassigned) [Example 11(a), N^6-[1-(5-Fluoropyrimidin-2-yl)ethyl]-1-methyl-N^4-(1-methyl-1H-imidazol-4-yl)-1H-pyrazolo[3,4-d]pyrimidine-4,6-diamine]", "values": [{"measurement": "IC50", "setting": "[1]", "value": 6.4, "unit": "µM"}]}
{"smiles": "CC(Nc1nc(Nc2cn(C)cn2)c2cnn(C)c2n1)c1ncc(F)cn1", "note": "(single isomer, unassigned) [Example 11(b), N^6-[1-(5-Fluoropyrimidin-2-yl)ethyl]1-methyl-N^4-(1-methyl-1H-imidazol-4-yl)-1H-pyrazolo[3,4-d]pyrimidine-4,6-diamine]", "values": [{"measurement": "IC50", "setting": "[1]", "value": "< 0.003", "unit": "µM"}]}
{"smiles": "CC(Nc1nc(Nc2cn(C)cn2)c2cccnc2n1)c1ncc(F)cc1F", "note": "(single isomer, unassigned) [Example 12(a), N^2-[1-(3,5-Difluoropyridin-2-yl)ethyl]-N^4-(1-methyl-1H-imidazol-4-yl)pyrido[2,3-d]pyrimidine-2,4-diamine]", "values": [{"measurement": "IC50", "setting": "[1]", "value": "< 0.003", "unit": "µM"}]}
{"smiles": "CC(Nc1nc(Nc2cn(C)cn2)c2cccnc2n1)c1ncc(F)cc1F", "note": "(single isomer, unassigned) [Example 12(b), N^2-[1-(3,5-Difluoropyridin-2-yl)ethyl]-N^4-(1-methyl-1H-imidazol-4-yl)pyrido[2,3-d]pyrimidine-2,4-diamine]", "values": [{"measurement": "IC50", "setting": "[1]", "value": 0.47, "unit": "µM"}]}
{"smiles": "COCC(Nc1nc(Nc2cn(C)cn2)c2cnn(C)c2n1)c1ncc(F)cc1F", "note": "(single isomer, unassigned) [Example 13(a)]", "values": [{"measurement": "IC50", "setting": "[1]", "value": 3.24, "unit": "µM"}]}
{"smiles": "COCC(Nc1nc(Nc2cn(C)cn2)c2cnn(C)c2n1)c1ncc(F)cc1F", "note": "(single isomer, unassigned) [Example 13(b), N^6-[1-(3,5-Difluoropyridin-2-yl)-2-methoxyethyl]-1-methyl-N^4-(1-methyl-1H-imidazol-4-yl)-1H-pyrazolo[3,4-d]pyrimidine-4,6-diamine]", "values": [{"measurement": "IC50", "setting": "[1]", "value": "< 0.003", "unit": "µM"}]}
{"smiles": "CC(Nc1nc(Nc2cn(C)cn2)c2cnn(C)c2n1)c1ncc(F)cc1F", "note": "(single isomer, unassigned) [Example 14(a), N^6-[1-(3,5-Difluoropyridin-2-yl)ethyl]-1-methyl-N^4-(1-methyl-1H-imidazol-4-yl)-1H-pyrazolo[3,4-d]pyrimidine-4,6-diamine]", "values": [{"measurement": "IC50", "setting": "[1]", "value": 5.4, "unit": "µM"}]}
{"smiles": "CC(Nc1nc(Nc2cn(C)cn2)c2cnn(C)c2n1)c1ncc(F)cc1F", "note": "(single isomer, unassigned) [Example 14(b), N^6-[1-(3,5-Difluoropyridin-2-yl)ethyl]-1-methyl-N^4-(1-methyl-1H-imidazol-4-yl)-1H-pyrazolo[3,4-d]pyrimidine-4,6-diamine]", "values": [{"measurement": "IC50", "setting": "[1]", "value": "< 0.003", "unit": "µM"}]}
{"smiles": "CC(Nc1nc2c(c(Nc3cn(C)cn3)n1)CNC2)c1ncc(F)cn1", "note": "(single isomer, unassigned) [Example 18(a), N^2-[1-(5-Fluoropyrimidin-2-yl)ethyl]-N^4-(1-methyl-1H-imidazol-4-yl)-6,7-dihydro-5H-pyrrolo[3,4-d]pyrimidine-2,4-diamine]", "values": [{"measurement": "IC50", "setting": "[1]", "value": 4.3, "unit": "µM"}]}
{"smiles": "CC(Nc1nc2c(c(Nc3cn(C)cn3)n1)CNC2)c1ncc(F)cn1", "note": "(single isomer, unassigned) [Example 18(b), N^2-[1-(5-Fluoropyrimidin-2-yl)ethyl]-N^4-(1-methyl-1H-imidazol-4-yl)-6,7-dihydro-5H-pyrrolo[3,4-d]pyrimidine-2,4-diamine]", "values": [{"measurement": "IC50", "setting": "[1]", "value": 0.45, "unit": "µM"}]}
{"smiles": "CC(Nc1nc(Nc2cn(C)cn2)c2ccn(C)c2n1)c1ncc(F)cn1", "note": "(single isomer, unassigned) [Example 23(a), N^2-[1-(5-Fluoropyrimidin-2-yl)ethyl]-7-methyl-N^4-(1-methyl-1H-imidazol-4-yl)-7H-pyrrolo[2,3-d]pyrimidine-2,4-diamine]", "values": [{"measurement": "IC50", "setting": "[1]", "value": "< 0.003", "unit": "µM"}]}
{"smiles": "CC(Nc1nc(Nc2cn(C)cn2)c2cc(F)cnc2n1)c1ncc(F)cn1", "note": "(single isomer, unassigned) [Example 38(a), 6-Fluoro-N^2-[1-(5-fluoropyrimidin-2-yl)ethyl]-N^4-(1-methyl-1H-imidazol-4-yl)pyrido[2,3-d]pyrimidine-2,4-diamine]", "values": [{"measurement": "IC50", "setting": "[1]", "value": 0.1, "unit": "µM"}]}
{"smiles": "CC(Nc1nc(Nc2cn(C)cn2)c2cc(F)cnc2n1)c1ncc(F)cn1", "note": "(single isomer, unassigned) [Example 38(b), 6-Fluoro-N^2-[1-(5-fluoropyrimidin-2-yl)ethyl]-N^4-(1-methyl-1H-imidazol-4-yl)pyrido[2,3-d]pyrimidine-2,4-diamine]", "values": [{"measurement": "IC50", "setting": "IC50 Assay (Method 1)", "value": 0.49, "unit": "µM"}]}
{"smiles": "CC(Nc1nc(Nc2cn(C)cn2)c2ccc(N3CCOCC3)nc2n1)c1ncc(F)cc1F", "note": "(single isomer, unassigned) [Example 40(a), N^2-[1-(3,5-Difluoropyridin-2-yl)ethyl]-N^4-(1-methyl-1H-imidazol-4-yl)-7-morpholin-4-ylpyrido[2,3-d]pyrimidine-2,4-diamine]", "values": [{"measurement": "IC50", "setting": "[1]", "value": 0.49, "unit": "µM"}]}
{"smiles": "CC(Nc1nc(Nc2cn(C)cn2)c2ccc(N3CCOCC3)nc2n1)c1ncc(F)cc1F", "note": "(single isomer, unassigned) [Example 40(b), N^2-[1-(3,5-Difluoropyridin-2-yl)ethyl]-N^4-(1-methyl-1H-imidazol-4-yl)-7-morpholin-4-ylpyrido[2,3-d]pyrimidine-2,4-diamine]", "values": [{"measurement": "IC50", "setting": "[1]", "value": "< 0.003", "unit": "µM"}]}
{"smiles": "CC(Nc1nc(Nc2cn(C)cn2)c2ccncc2n1)c1ncc(F)cc1F", "note": "(single isomer, unassigned) [Example 43(a), N^2-[1-(3,5-Difluoropyridin-2-yl)ethyl]-N^4-(1-methyl-1H-imidazol-4-yl)pyrido[3,4-d]pyrimidine-2,4-diamine]", "values": [{"measurement": "IC50", "setting": "[1]", "value": "< 0.003", "unit": "µM"}]}
